Results reported in patent US20060069132A1, “Azolecarboxamide herbicides” (priority 2004, published 2006).

What was measured:
goosegrass = assay: Test C pre-/postemergence herbicide test; type: in vivo, Eleusine indica
Outline: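 Greenhouse-grown plants were evaluated visually 12 to 14 days after treatment, with 100 meaning complete control and 0 no effect. Application was preemergence, or postemergence at 2 to 18 cm.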

chickweed = assay: Test C postemergence herbicide test; type: in vivo, Stellaria media
Description: At the same time, plants selected from these crop and weed species and also winter barley (Hordeum vulgare L.), blackgrass (Alopecurus myosuroides Huds.), canarygrass (Phalaris minor Retz.), chickweed (Stellaria media (L.) Vill.), downy bromegrass (Bromus tectorum L.), green foxtail (Setaria viridis (L.) Beauv.), Italian ryegrass (Lolium multiflorum Lam.), wheat (Triticum aestivum L.), wild oat (Avenafatua L.) and windgrass (Apera spica-venti (L.) Beauv.) were treated with postemergence applications of some of the test chemicals formulated in the same manner. Plants ranged in height from 2 to 18 cm (1- to 4-leaf stage) for postemergence treatments. Plant species in the flooded paddy test consisted of rice (Oryza sativa), smallflower umbrella sedge (Cyperus difformis L.), ducksalad (Heteranthera limosa (Sw.) Willd.) and barnyardgrass (Echinochloa crus-galli (L.) Beauv.) grown to the 2-leaf stage for testing. Treated plants and controls were maintained in a greenhouse for 12 to 14 days, after which time all species were compared to controls and visually evaluated. Plant response ratings, summarized in Table C, are based on a scale of 0 to 100 where 0 is no effect and 100 is complete control. A dash (-) response means no test result.

[1] = 125 g ai/ha, scale 0 (no effect) to 100 (complete control), visual, 12 to 14 days, preemergence
[2] = Postemergence, 250 g ai/ha, scale 0 to 100, 0 no effect, 100 complete control
[3] = postemergence, 125 g ai/ha, scale 0 to 100
[4] = postemergence, 62 g ai/ha, scale 0 to 100
[5] = postemergence, 31 g ai/ha, scale 0 to 100
[6] = Postemergence, 500 g ai/ha, scale 0 to 100

CCn1nc(C(C)(C)C)cc1C(=O)Nc1ccc(F)c(C(=O)NCCF)c1 [Compound 60]
Plant response rating, Goosegrass (goosegrass; 31 g ai/ha, preemergence, scale 0 to 100): 10 | Plant response rating (0 = no effect, 100 = complete control), Goosegrass (goosegrass; 62 g ai/ha, preemergence): 55 | Plant response rating, Goosegrass (goosegrass; [1]): 85 | Plant response rating, Goosegrass (goosegrass; 250 g ai/ha, scale 0 to 100 (0 no effect, 100 complete control), visual, 12 to 14 days, preemergence): 95 | Plant response rating, Goosegrass (goosegrass; [2]): 5 | Plant response rating, Goosegrass (goosegrass; [3]): 0 | Plant response rating, Goosegrass (goosegrass; [4]): 0 | Plant response rating, Chickweed (chickweed; [2]): 10 | Plant response rating, Chickweed (chickweed; [3]): 10 | Plant response rating, Chickweed (chickweed; [5]): 5 | Plant response rating, Chickweed (chickweed; [4]): 5

C=CCOC(=O)c1cccc(NC(=O)c2cc(C(C)(C)C)nn2CC)c1 [Compound 85]
Goosegrass plant response rating (goosegrass; [6]): 60 | Plant response rating, Goosegrass (goosegrass; [2]): 60 | Plant response rating, Goosegrass (goosegrass; [3]): 40 | Plant response rating, Goosegrass (goosegrass; [4]): 35 | Chickweed plant response rating (chickweed; [6]): 100 | Plant response rating, Chickweed (chickweed; [2]): 100 | Plant response rating, Chickweed (chickweed; [3]): 100 | Plant response rating, Chickweed (chickweed; [4]): 100

CCn1nc(C(C)(C)C)cc1C(=O)Nc1cccc(C#N)c1 [Compound 139]
Plant response rating (0 = no effect, 100 = complete control), Goosegrass (goosegrass; 62 g ai/ha, preemergence): 60 | Plant response rating, Goosegrass (goosegrass; [1]): 85 | Plant response rating, Goosegrass (goosegrass; [2]): 5 | Plant response rating, Goosegrass (goosegrass; [3]): 0 | Plant response rating, Goosegrass (goosegrass; [4]): 0 | Plant response rating, Chickweed (chickweed; [2]): 80 | Plant response rating, Chickweed (chickweed; [3]): 70 | Plant response rating, Chickweed (chickweed; [5]): 0 | Plant response rating, Chickweed (chickweed; [4]): 0

CCn1nc(C(C)(C)C)cc1C(=O)Nc1cccc(C(=O)OC)c1 [Compound 81]
Plant response rating, Goosegrass (goosegrass; [2]): 10 | Plant response rating, Goosegrass (goosegrass; [3]): 5 | Plant response rating, Goosegrass (goosegrass; [4]): 0 | Plant response rating, Chickweed (chickweed; [2]): 100 | Plant response rating, Chickweed (chickweed; [3]): 95 | Plant response rating, Chickweed (chickweed; [5]): 90 | Plant response rating, Chickweed (chickweed; [4]): 95
